We go through 15 molecules from patent US20200215074A1, “Method of Treatment of Cancer” (CIPLA LIMITED, priority 2017, published 2020).

The test system of experiment [1] is PAR-4. The experiment is described as follows: In-vitro PAR-4 induction in mouse embryonic fibroblast cells (Western blot). It counts as cell-based. Particulars: for PAR-4 secretion in the cell supernatant: 18-21 h incubation, Western blot. The procedure:
Mouse embryonic fibroblast cells were harvested from exponential phase cultures. After a 24 h recovery period to allow the cells to resume exponential growth the cells were treated with […] followed by further 18-21 h of incubation. […] The samples were also subjected to SDS/PAGE and Coomassie blue staining to determine albumin levels in serum from the Conditioned Medium (CM) as another loading control.
Mouse embryonic fibroblast cells were harvested from exponential phase cultures. After a 24 h recovery period to allow the cells to resume exponential growth the cells were treated with […] followed by further 18-21 h of incubation. […] The samples were also subjected to SDS/PAGE and Coomassie blue staining to determine albumin levels in serum from the CM as another loading control.
Mouse embryonic fibroblast were harvested from exponential phase cultures. After a 24 h recovery period to allow the cells to resume exponential growth the cells were treated with 25 µM of Meloquine followed by further 18-21 h of incubation. […] The samples were also subjected to SDS/PAGE and Coomassie blue staining to determine albumin levels in serum from the cell supernatant as another loading control.
Mouse embryonic fibroblast cells were harvested from exponential phase cultures. After a 24 h recovery period to allow the cells to resume exponential growth the cells were treated with […] followed by further 18-21 h of incubation. […] The samples were also subjected to SDS/PAGE and Coomassie blue staining to determine albumin levels in serum from the CM as another loading control.
Mouse embryonic fibroblast were harvested from exponential phase cultures. After a 24 h recovery period to allow the cells to resume exponential growth the cells were treated with 25 μM of Mebendazole followed by further 18-21 h of incubation. […] The samples were also subjected to SDS/PAGE and Coomassie blue staining to determine albumin levels in serum from the cell supernatant as another loading control.
Mouse embryonic fibroblast were harvested from exponential phase cultures. After a 24 h recovery period to allow the cells to resume exponential growth the cells were treated with 25 µM of Tafenoquine followed by further 18-21 h of incubation. […] The samples were also subjected to SDS/PAGE and Coomassie blue staining to determine albumin levels in serum from the cell supernatant as another loading control.
The experiment was conducted as per method set in an Example 1.
(In general: Immunoblotting shows a protein as a band on a membrane.)

Experiment [2] relates to PAR-4. The experiment can be described thus: PAR-4 inducing activity, general statement of the inventors. It is filed as cell-based, human and mouse. The conditions noted are these: summary statement, no test details.
Experiment [3] deals with PAR-4. The conditions noted are these: literature (Burikhanov et al. 2014); cited from earlier work.
The test system of experiment [4] is PAR-4. The experiment can be described thus: In-vivo PAR-4 induction in C57/BL6 mice (systemic serum PAR-4). Details: species or system mouse. Particulars: blood 24 hrs later. How it is done: Immunocompetent mice were orally administered with 10 mg/kg and 51.2 mg/kg body weight of Mefloquine or vehicle for 3 consecutive days followed by collection of blood 24 hrs later, serum separation and testing for systemic levels of PAR-4. Immunocompetent mice were orally administered with 1.5 mg/kg body weight of Narasin or vehicle for 3 consecutive days followed by collection of blood 24 hrs later, serum separation and testing for systemic levels of PAR-4.

For experiment [5], the system named is GRP-78. The experiment is described as follows: In-vitro GRP-78 induction in human ovarian and renal cancer cell lines (Western blot). It is filed as cell-based. Particulars: 25 μM, 18-21 h. How it is done:
Human ovarian cancer cell line SKOV-3 and renal cancer cell line 786-0 were harvested from exponential phase cultures. After a 24 h recovery period to allow the cells to resume exponential growth the cells were treated with 25 μM of Mefloquine followed by further 18-21 h of incubation. Induction of GRP-78 expression was checked in the cell lysate by subjecting the samples to Western blot analysis with antibodies specific for GRP-78.
Human ovarian cancer cell line SKOV-3 and renal cancer cell line 786-0 were harvested from exponential phase cultures. After a 24 h recovery period to allow the cells to resume exponential growth the cells were treated with 25 μM of Mebendazole followed by further 18-21 h of incubation. Induction of GRP-78 expression was checked in the cell lysate by subjecting the samples to Western blot analysis with antibodies specific for GRP-78.
Human ovarian cancer cell line SKOV-3 and renal cancer cell line 786-0 were harvested from exponential phase cultures. After a 24 h recovery period to allow the cells to resume exponential growth the cells were treated with 25 μM of Tafenoquine followed by further 18-21 h of incubation. Induction of GRP-78 expression was checked in the cell lysate by subjecting the samples to Western blot analysis with antibodies specific for GRP-78.

Experiment [6] has as its system PAR-4. Particulars: at micromolar levels; cited from earlier work.
The subject of experiment [7] is metastatic lung tumors. The conditions noted are these: injected in mice; literature (Zhao et al. 2011); cited from earlier work.
Where [8] appears, read: 25 μM (25 M [sic] for Mefloquine and Tafenoquine).
Setting [9] is: SKOV-3 human ovarian cancer cell line.

`Cc1cccc(C)c1OCC(=O)N[C@@H](Cc1ccccc1)[C@@H](O)C[C@H](Cc1ccccc1)NC(=O)[C@H](C(C)C)N1CCCNC1=O` [Lopinavir]: in experiment [1] (test concentration not given), the “PAR-4 secretion in the cell supernatant” value is recorded as “able to induce robust PAR-4 secretion”. Further, in experiment [2], the PAR-4 inducing activity result is given as “found to possess PAR-4 inducing activity”.
`O=C(Nc1cc(Cl)cc2c1[nH]c1cnccc12)c1cccnc1` [PS-1145]: the “Secretion of PAR-4 from normal cells in mice” value (“Secretion … in mice” below) in experiment [3] was “can increase secretion of PAR-4”.
Consider `COc1ccc2nc3cc(Cl)ccc3c(Nc3cc(CN4CCCC4)c(O)c(CN4CCCC4)c3)c2n1` [Pyronaridine], for which the “Dose dependence of PAR-4 induction” value in experiment [1] is recorded as “in a dose dependent manner”. The “PAR-4 secretion in the cell supernatant” value in experiment [1] (test concentration not given) is recorded as “able to induce robust PAR-4 secretion”. Further, in experiment [2], the PAR-4 inducing activity result is reported as “found to possess PAR-4 inducing activity”.
For `OC(c1cc(C(F)(F)F)nc2c(C(F)(F)F)cccc12)C1CCCCN1` (stereo not shown) [Mefloquine], in experiment [1] (setting [8]), the “PAR-4 secretion in the cell supernatant” value was “able to induce robust PAR-4 secretion”. For the same molecule, the “Elevation of PAR-4 in mouse serum relative to vehicle” value in experiment [4] (oral 51.2 mg/kg for 3 consecutive days) is “induced robust elevation of PAR-4”. For the same molecule, the “GRP-78 expression in cell lysate” value in experiment [5] (786-0 renal cancer cell line) and in experiment [5] (setting [9]) was “induced GRP-78 expression” throughout. Moreover, in experiment [2], the PAR-4 inducing activity result is recorded as “found to possess PAR-4 inducing activity”.
For the molecule `C[C@@H]1CN(c2c(F)c(N)c3c(=O)c(C(=O)O)cn(C4CC4)c3c2F)C[C@H](C)N1` [Sparfloxacin], the “PAR-4 secretion in the cell supernatant” value in experiment [1] (test concentration not given) is recorded as “able to induce robust PAR-4 secretion”. Also, in experiment [2], the PAR-4 inducing activity entry is reported as “found to possess PAR-4 inducing activity”.
The like results for `CCn1cc(C(=O)O)c(=O)c2ccc(C)nc21` [Nalidixic Acid] were, in that order, “able to induce robust PAR-4 secretion” and “found to possess PAR-4 inducing activity”.
Turning to `COc1cc(C)c2c(Oc3cccc(C(F)(F)F)c3)c(OC)cc(NC(C)CCCN)c2n1` (stereo not shown) [Tafenoquine], in experiment [1], the “Dose dependence of PAR-4 induction” value is on record as “Dose dependent induction of PAR-4”. In addition, the “PAR-4 secretion in the cell supernatant” value in experiment [1] (setting [8]) was “able to induce robust PAR-4 secretion”. In addition, the “Induction of PAR-4 in cell lysate” value in experiment [1] is recorded as “Induction of PAR-4”. Also, the “GRP-78 expression in cell lysate” value in experiment [5] (786-0 renal cancer cell line) and in experiment [5] (setting [9]) was “induced GRP-78 expression” in each case. In experiment [2], the PAR-4 inducing activity entry is “found to possess PAR-4 inducing activity”.
Regarding `CC[C@@H](C(=O)O)[C@@H]1O[C@@H]([C@@H](C)[C@H](O)[C@H](C)C(=O)[C@H](CC)[C@H]2O[C@]3(C=C[C@@H](O)[C@]4(CC[C@@](C)([C@H]5CC[C@](O)(CC)[C@H](C)O5)O4)O3)[C@H](C)C[C@@H]2C)[C@@H](C)C[C@@H]1C` [Narasin], the “PAR-4 secretion in the cell supernatant” value in experiment [1] (test concentration not given) is recorded as “able to induce robust PAR-4 secretion”. In addition, the “Elevation of PAR-4 in mouse serum relative to vehicle” value in experiment [4] (oral 1.5 mg/kg for 3 consecutive days) is given as “induced robust elevation of PAR-4”. Moreover, in experiment [2], the PAR-4 inducing activity entry was “found to possess PAR-4 inducing activity”.
Take `CCn1cc(C(=O)O)c(=O)c2cnc(N3CCNCC3)nc21` [Pipemidic Acid]: the “PAR-4 secretion in the cell supernatant” value in experiment [1] (test concentration not given) is “able to induce robust PAR-4 secretion”. Besides, the PAR-4 inducing activity entry in experiment [2] is listed as “found to possess PAR-4 inducing activity”.
For `CC(C)N1CCN(c2ccc(OCC3COC(Cn4cncn4)(c4ccc(Cl)cc4Cl)O3)cc2)CC1` (stereo not shown) [Terconazole], in experiment [1], the “Dose dependence of PAR-4 induction” value is on record as “in a dose dependent manner” and the “Induction of PAR-4 in cell lysate” value is reported as “Induction of PAR-4”. The “PAR-4 secretion in the cell supernatant” value in experiment [1] (test concentration not given) is on record as “able to induce robust PAR-4 secretion”. The PAR-4 inducing activity result in experiment [2] was “found to possess PAR-4 inducing activity”.
Turning to `COC(=O)Nc1nc2ccc(C(=O)c3ccccc3)cc2[nH]1` [Mebendazole], the “PAR-4 secretion in the cell supernatant” value in experiment [1] (setting [8]) was “able to induce robust PAR-4 secretion”. Also, the “Induction of PAR-4 in cell lysate” value in experiment [1] was “Induction of PAR-4”. Further, the “GRP-78 expression in cell lysate” value in experiment [5] (786-0 renal cancer cell line) and in experiment [5] (setting [9]) was “induced GRP-78 expression” each time. In addition, the PAR-4 inducing activity entry in experiment [2] is on record as “found to possess PAR-4 inducing activity”.
Regarding `COc1ccc(-c2ccc3cc(C(=O)O)ccc3c2)cc1C12CC3CC(CC(C3)C1)C2` [Adapalene], the PAR-4 inducing activity entry in experiment [2] is recorded as “found to possess PAR-4 inducing activity”.
As for `CN(C)c1ccc2cc(-c3ccccc3F)c(N)nc2c1` [Arylquin-1], the “Secretion … in mice” value in experiment [3] is “can increase secretion of PAR-4”.
For `COc1ccc(C2=N[C@@H](c3ccc(Cl)cc3)[C@@H](c3ccc(Cl)cc3)N2C(=O)N2CCNC(=O)C2)c(OC(C)C)c1` [Nutlin-3a], in experiment [3], the “Secretion … in mice” value is recorded as “can increase secretion of PAR-4”. Besides, in experiment [6], the “PAR-4 secretion in MEF cells” value is given as “stimulated PAR-4 secretion”.

B1: recombinant PAR-4: recombinant PAR-4 protein injected in mice to elevate extracellular PAR-4 (protein, UniProt Q96IZ0 1-340, looked up)
PRKC apoptosis WT1 regulator …: MATGGYRTSSGLGGSTTDFLEEWKAKREKMRAKQNPPGPAPPGGGSSDAAGKPPAGALGTPAAAAANELNNNLPGGAPAAPAVPGPGGVNCAVGSAMLTRAAPGPRRSEDEPPAASASAAPPPQRDEEEPDGVPEKGKSSGPSARKGKGQIEKRKLREKRRSTGVVNIPAAECLDEYEDDEAGQKERKREDAITQQNTIQNEAVNLLDPGSSYLLQEPPRTVSGRYKSTTSVSEEDVSSRYSRTDRSGFPRYNRDANVSGTLVSSSTLEKKIEDLEKEVVRERQENLRLVRLMQDKEEMIGKLKEEIDLLNRDLDDIEDENEQLKQENKTLLKVVGQLTR
With B1, in experiment [7], the “Effect on metastatic lung tumors” value is “cause inhibition of metastatic lung tumors”.
